Reference: EP0904079B1, “ANTIDIABETIC AGENTS” (MERCK & CO., INC., priority 1996, dated 1997)
pKd: −log10 of the molar value.

Biological target: T1, Human PPARδ (Homo sapiens, UniProt Q03181)
T1 construct: The full length human cDNA for PPARγ2 and PPARδ were subcloned into the PGEX-2T and PGEX-KT, respectively, expression vector; made in house; host or cells: E. coli
T1 sequence (Q03181 1-441): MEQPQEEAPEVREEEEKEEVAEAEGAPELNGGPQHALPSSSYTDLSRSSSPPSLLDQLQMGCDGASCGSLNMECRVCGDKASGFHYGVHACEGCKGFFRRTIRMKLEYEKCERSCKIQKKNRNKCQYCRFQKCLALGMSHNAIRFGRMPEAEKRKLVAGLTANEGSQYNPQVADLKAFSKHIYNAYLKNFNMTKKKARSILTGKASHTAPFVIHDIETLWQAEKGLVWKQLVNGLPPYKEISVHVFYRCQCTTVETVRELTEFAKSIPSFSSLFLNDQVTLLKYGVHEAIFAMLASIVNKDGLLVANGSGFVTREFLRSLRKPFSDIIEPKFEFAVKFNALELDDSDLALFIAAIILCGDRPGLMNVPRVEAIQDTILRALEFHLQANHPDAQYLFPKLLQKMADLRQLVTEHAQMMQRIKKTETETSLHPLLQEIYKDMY
Test: [3H2]Example 11 displacement assay (PPAR receptor binding assay)
Procedure: Human PPARγ2 and PPARδ, independently, were prepared as gst-fusion proteins in E. coli. The full length human cDNA for PPARγ2 and PPARδ were subcloned into the PGEX-2T and PGEX-KT, respectively, expression vector (Pharmacia). E. coli containing the plasmid were grown, induced, and then harvested by centrifugation. The resuspended pellet was broken in a French press and debris was removed by centrifugation at 12,000Xg. Receptors were purified from the supernatant by affinity chromatography on glutathione sepharose. After application to the column, and 1 wash, receptor was eluted with glutathione. Glycerol was added to stabilize the receptor and aliquots were frozen at -80 °C for later use.
Assays were incubated for ∼ 16 h at 4 °C in a final volume of 300 µl. Unbound ligand was removed by addition of 200 µl dextran/gelatin-coated charcoal, on ice, for ∼10 minutes. After centrifugation at 3000 rpm for 10 min at 4 °C, 200 µl of the supernatant fraction was counted in a liquid scintillation counter.

CCCc1c(OCCCSc2ccc(CC(=O)O)cc2Cl)ccc2oc3ccccc3c12 [Example 11, 3-Chloro-4-(1-propyl-dibenzofuranyl-2-oxy-propylthio)-phenylacetic acid]
pKd: 9.00
